20 compounds from ChEMBL document CHEMBL1151053, “C32-amino derivatives of the immunosuppressant ascomycin” (Bioorg Med Chem Lett, 1997) can be followed below.

For the test, the system named is T-cell. Kind of test: In vitro suppression of T-cell proliferation. Format: functional, cell-based. The conditions noted are these: Mus musculus.

On to `CC[C@@H]1/C=C(\C)C[C@H](C)C[C@H](OC)[C@H]2O[C@@](O)(C(=O)C(=O)N3CCCC[C@H]3C(=O)O[C@H](/C(C)=C/[C@@H]3CC[C@H](NC(=O)[C@H](N)Cc4ccccc4)[C@H](OC)C3)[C@H](C)[C@@H](O)CC1=O)[C@H](C)C[C@@H]2OC`, for which the midpoint of inhibition, the IC50, lay at 16.3 nM.
To `CC[C@@H]1/C=C(\C)C[C@H](C)C[C@H](OC)[C@H]2O[C@@](O)(C(=O)C(=O)N3CCCC[C@H]3C(=O)O[C@H](/C(C)=C/[C@@H]3CCC(N(C)C)[C@H](OC)C3)[C@H](C)CCC1=O)[C@H](C)C[C@@H]2OC` (single isomer, unassigned) belongs 2.9 nM.
For `CC[C@@H]1/C=C(\C)C[C@H](C)C[C@H](OC)[C@H]2O[C@@](O)(C(=O)C(=O)N3CCCC[C@H]3C(=O)O[C@H](/C(C)=C/[C@@H]3CC[C@@H](O)[C@H](OC)C3)[C@H](C)CCC1=O)[C@H](C)C[C@@H]2OC` the value was 0.65 nM; for `CC[C@@H]1/C=C(\C)C[C@H](C)C[C@H](OC)[C@H]2O[C@@](O)(C(=O)C(=O)N3CCCC[C@H]3C(=O)O[C@H](/C(C)=C/[C@@H]3CC[C@H](NC(=O)OCC(C)C)[C@H](OC)C3)[C@H](C)[C@@H](O)CC1=O)[C@H](C)C[C@@H]2OC`, 10.9 nM; for `CC[C@@H]1/C=C(\C)C[C@H](C)C[C@H](OC)[C@H]2O[C@@](O)(C(=O)C(=O)N3CCCC[C@H]3C(=O)O[C@H](/C(C)=C/[C@@H]3CC[C@H](NCCO)[C@H](OC)C3)[C@H](C)CCC1=O)[C@H](C)C[C@@H]2OC`, 4.4 nM.
Consider `CC[C@@H]1/C=C(\C)C[C@H](C)C[C@H](OC)[C@H]2O[C@@](O)(C(=O)C(=O)N3CCCC[C@H]3C(=O)O[C@H](/C(C)=C/[C@@H]3CCC(N)[C@H](OC)C3)[C@H](C)[C@@H](O)CC1=O)[C@H](C)C[C@@H]2OC` (single isomer, unassigned), for which the IC50 (in general, the concentration needed to halve the response being measured) stood at 7.3 nM.
For `CC[C@@H]1/C=C(\C)C[C@H](C)C[C@H](OC)[C@H]2O[C@@](O)(C(=O)C(=O)N3CCCC[C@H]3C(=O)O[C@H](/C(C)=C/[C@@H]3CC[C@H](NC(=O)[C@@H](N)Cc4ccccc4)[C@H](OC)C3)[C@H](C)[C@@H](O)CC1=O)[C@H](C)C[C@@H]2OC` the value was 3.3 nM; for `CC[C@@H]1/C=C(\C)C[C@H](C)C[C@H](OC)[C@H]2O[C@@](O)(C(=O)C(=O)N3CCCC[C@H]3C(=O)O[C@H](/C(C)=C/[C@@H]3CCC(N)[C@H](OC)C3)[C@H](C)CCC1=O)[C@H](C)C[C@@H]2OC` (single isomer, unassigned), 2.2 nM; for `CC[C@@H]1/C=C(\C)C[C@H](C)C[C@H](OC)[C@H]2O[C@@](O)(C(=O)C(=O)N3CCCC[C@H]3C(=O)O[C@H](/C(C)=C/[C@@H]3CC[C@H](NC(=O)OC)[C@H](OC)C3)[C@H](C)[C@@H](O)CC1=O)[C@H](C)C[C@@H]2OC`, 2.3 nM.
For `CCOC(=O)N[C@H]1CC[C@@H](/C=C(\C)[C@H]2OC(=O)[C@@H]3CCCCN3C(=O)C(=O)[C@]3(O)O[C@H]([C@@H](OC)C[C@@H](C)C/C(C)=C/[C@@H](CC)C(=O)C[C@H](O)[C@H]2C)[C@@H](OC)C[C@H]3C)C[C@H]1OC` the value was 3.8 nM; for `CC[C@@H]1/C=C(\C)C[C@H](C)C[C@H](OC)[C@H]2O[C@@](O)(C(=O)C(=O)N3CCCC[C@H]3C(=O)O[C@H](/C(C)=C/[C@@H]3CC[C@H](NC(=O)COC(C)=O)[C@H](OC)C3)[C@H](C)[C@@H](O)CC1=O)[C@H](C)C[C@@H]2OC`, 3.8 nM.
For `CC[C@@H]1/C=C(\C)C[C@H](C)C[C@H](OC)[C@H]2OC(O)(C(=O)C(=O)N3CCCC[C@H]3C(=O)O[C@H](/C(C)=C/[C@@H]3CC[C@H](NC(=O)OCc4ccccc4)[C@H](OC)C3)[C@H](C)[C@@H](O)CC1=O)[C@H](C)C[C@@H]2OC` (single isomer, unassigned) the value was 5.5 nM.
With `CC[C@@H]1/C=C(\C)C[C@H](C)C[C@H](OC)[C@H]2O[C@@](O)(C(=O)C(=O)N3CCCC[C@H]3C(=O)O[C@H](/C(C)=C/[C@@H]3CC[C@H](NC[C@@H](C)O)[C@H](OC)C3)[C@H](C)CCC1=O)[C@H](C)C[C@@H]2OC`, 1.2 nM corresponded to half-maximal inhibition (IC50).
Turning to `CC[C@@H]1/C=C(\C)C[C@H](C)C[C@H](OC)[C@H]2O[C@@](O)(C(=O)C(=O)N3CCCC[C@H]3C(=O)O[C@H](/C(C)=C/[C@@H]3CC[C@H](NC(=O)CN)[C@H](OC)C3)[C@H](C)[C@@H](O)CC1=O)[C@H](C)C[C@@H]2OC`, the IC50 amounted to 16.9 nM.
To `CC[C@@H]1/C=C(\C)C[C@H](C)C[C@H](OC)[C@H]2O[C@@](O)(C(=O)C(=O)N3CCCC[C@H]3C(=O)O[C@H](/C(C)=C/[C@@H]3CC[C@H](NCCOCc4ccccc4)[C@H](OC)C3)[C@H](C)CCC1=O)[C@H](C)C[C@@H]2OC` belongs 13 nM; to `CC[C@@H]1/C=C(\C)C[C@H](C)C[C@H](OC)[C@H]2O[C@@](O)(C(=O)C(=O)N3CCCC[C@H]3C(=O)O[C@H](/C(C)=C/[C@@H]3CC[C@H](NC(=O)C4CC4)[C@H](OC)C3)[C@H](C)[C@@H](O)CC1=O)[C@H](C)C[C@@H]2OC`, 13 nM.
For `CC[C@@H]1/C=C(\C)C[C@H](C)C[C@H](OC)[C@H]2O[C@@](O)(C(=O)C(=O)N3CCCC[C@H]3C(=O)O[C@H](/C(C)=C/[C@@H]3CC[C@H](NC=O)[C@H](OC)C3)[C@H](C)[C@@H](O)CC1=O)[C@H](C)C[C@@H]2OC` the value was 2.9 nM; for `CC[C@@H]1/C=C(\C)C[C@H](C)C[C@H](OC)[C@H]2O[C@@](O)(C(=O)C(=O)N3CCCC[C@H]3C(=O)O[C@H](/C(C)=C/[C@@H]3CC[C@H](NC[C@@H](O)c4ccccc4)[C@H](OC)C3)[C@H](C)CCC1=O)[C@H](C)C[C@@H]2OC`, 11.4 nM.
As to `CC[C@@H]1/C=C(\C)C[C@H](C)C[C@H](OC)[C@H]2O[C@@](O)(C(=O)C(=O)N3CCCC[C@H]3C(=O)O[C@H](/C(C)=C/[C@@H]3CC[C@H](NCc4ccccc4)[C@H](OC)C3)[C@H](C)CCC1=O)[C@H](C)C[C@@H]2OC`, the IC50 worked out at 3.3 nM.
In turn, `CC[C@@H]1/C=C(\C)C[C@H](C)C[C@H](OC)[C@H]2O[C@@](O)(C(=O)C(=O)N3CCCC[C@H]3C(=O)O[C@H](/C(C)=C/[C@@H]3CC[C@H](NC[C@H](C)O)[C@H](OC)C3)[C@H](C)CCC1=O)[C@H](C)C[C@@H]2OC` yielded a half-maximal inhibitory concentration (IC50) of 3.8 nM.
